Data published in US6479435B1, “Diaryl ethers and processes for their preparation and herbicidal and desiccant compositions containing them” (ISK Americas Incorporated, priority 1997, dated 2002).

Tests used:
Format in all cases: in vivo
[1] = system: common ragweed (Ambrosia artemisiifolia L., AMBEL); experiment: Post-emerge greenhouse herbicide test, phytotoxicity rating; details: 14 days after application
Outline: (§1)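 Scores use a 0 (no damage) to 100 (complete kill) scale, taken 14 days after a foliar spray. Acetone solutions with 0.25% v/v non-ionic surfactant were applied by track sprayer at 187 l/ha and 63-1000 g ai/ha to bottom-watered 2-3 leaf plants.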

[2] = system: soybean (Glycine max L., var. Pella 86, SOY); experiment: Pre-emerge greenhouse test, crop damage rating; details: 14 days after application, rating scale 0-100
Outline: (§2)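 Visual 0–100 injury rating (100 = all plants dead) taken 14 days after treatment. Rates of 125–1000 g ai/ha in acetone, 187 l/ha, were sprayed onto soil one day post-sowing; pots were surface-watered to incorporate, then bottom-watered.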

[3] = system: upland rice (Oryza sp., var.Tebonnet, RICE); experiment: Post-emerge greenhouse test, crop damage rating; details: 14 days after application
Outline: as §1

[4] = system: field corn (Zea mays L., var. Dekalb 535, CORN); experiment: Post-emerge greenhouse test, crop damage rating; details: 14 days after application
Outline: as §1

[5] = system: soybean (Glycine max L., var. Pella 86, SOY); experiment: Post-emerge greenhouse test, crop damage rating; details: 14 days after application
Outline: as §1

[6] = system: sicklepod (Cassia obtusifolia, CASOB); experiment: Pre-emerge greenhouse herbicide test, phytotoxicity rating; details: 14 days after application, rating scale 0-100
Outline: as §2

[7] = system: common ragweed (Ambrosia artemisiifolia L., AMBEL); experiment: as above; details: 14 days after application, rating scale 0-100
Outline: as §2

[8] = system: redroot pigweed (Amaranthus retroflexus, AMARE); experiment: as above; details: 14 days after application, rating scale 0-100
Outline: as §2

[9] = system: ivyleaf morningglory (Ipomoea hederacea, IPOHE); experiment: as above; details: 14 days after application, rating scale 0-100
Outline: as §2

[10] = system: Johnsongrass (Sorghum halepense, SORHA); experiment: as above; details: 14 days after application, rating scale 0-100
Outline: as §2

[11] = system: velvetleaf (Abutilon theophrasti, ABUTH); experiment: as above; details: 14 days after application, rating scale 0-100
Outline: as §2

[12] = system: large crabgrass (Digitaria sanguinalis, DIGSA); experiment: as above; details: 14 days after application, rating scale 0-100
Outline: as §2

[13] = system: green foxtail (Setaria viridis, SETVI); experiment: as above; details: 14 days after application, rating scale 0-100
Outline: as §2

[14] = system: lambsquarters (Chenopodium album, CHEAL); experiment: as above; details: 14 days after application, rating scale 0-100
Outline: as §2

[15] = system: barnyardgrass (Echinochloa crusgalli, ECHCG); experiment: as above; details: 14 days after application, rating scale 0-100
Outline: as §2

[16] = system: sicklepod (Cassia obtusifolia, CASOB); experiment: Post-emerge greenhouse herbicide test, phytotoxicity rating; details: 14 days after application
Outline: as §1

[17] = system: redroot pigweed (Amaranthus retroflexus, AMARE); experiment: as above; details: 14 days after application
Outline: as §1

[18] = system: ivyleaf morningglory (Ipomoea hederacea, IPOHE); experiment: as above; details: 14 days after application
Outline: as §1

[19] = system: Johnsongrass (Sorghum halepense, SORHA); experiment: as above; details: 14 days after application
Outline: as §1

[20] = system: velvetleaf (Abutilon theophrasti, ABUTH); experiment: as above; details: 14 days after application
Outline: as §1

[21] = system: large crabgrass (Digitaria sanguinalis, DIGSA); experiment: as above; details: 14 days after application
Outline: as §1

[22] = system: green foxtail (Setaria viridis, SETVI); experiment: as above; details: 14 days after application
Outline: as §1

[23] = system: lambsquarters (Chenopodium album, CHEAL); experiment: as above; details: 14 days after application
Outline: as §1

[24] = system: barnyardgrass (Echinochloa crusgalli, ECHCG); experiment: as above; details: 14 days after application
Outline: as §1

[25] = system: upland rice (Oryza sp., var.Tebonnet, RICE); experiment: Pre-emerge greenhouse test, crop damage rating; details: 14 days after application, rating scale 0-100
Outline: as §2

[26] = system: field corn (Zea mays L., var. Dekalb 535, CORN); experiment: Pre-emerge greenhouse test, crop damage rating; details: 14 days after application, rating scale 0-100
Outline: as §2

## Cn1c(C(F)(F)F)nc(-c2cc(Oc3ncccn3)c(Cl)cc2F)c1Cl [Compound 2-3]
[1]; 63 g al/ha
  AMBEL phytotoxicity rating (0-100): 30
[1]; 500 g al/ha
  AMBEL phytotoxicity rating (0-100): 60
[2]; 125 g ai/ha
  crop damage rating SOY: 50
[2]; 500 g ai/ha
  crop damage rating SOY: 25
[3]; 63 g al/ha
  RICE crop damage rating (0-100): 40
[3]; 500 g al/ha
  RICE crop damage rating (0-100): 90
[4]; 63 g al/ha
  CORN crop damage rating (0-100): 30
[4]; 500 g al/ha
  CORN crop damage rating (0-100): 80
[5]; 63 g al/ha
  SOY crop damage rating (0-100): 90
[5]; 500 g al/ha
  SOY crop damage rating (0-100): 90
[6]; 125 g ai/ha
  phytotoxicity rating CASOB: 30
[6]; 500 g ai/ha
  phytotoxicity rating CASOB: 100
[7]; 125 g ai/ha
  phytotoxicity rating AMBEL: 35
[7]; 500 g ai/ha
  phytotoxicity rating AMBEL: 90
[8]; 125 g ai/ha
  phytotoxicity rating AMARE: 100
[8]; 500 g ai/ha
  phytotoxicity rating AMARE: 100
[9]; 125 g ai/ha
  phytotoxicity rating IPOHE: 20
[9]; 500 g ai/ha
  phytotoxicity rating IPOHE: 100
[10]; 125 g ai/ha
  phytotoxicity rating SORHA: 100
[10]; 500 g ai/ha
  phytotoxicity rating SORHA: 100
[11]; 125 g ai/ha
  phytotoxicity rating ABUTH: 100
[11]; 500 g ai/ha
  phytotoxicity rating ABUTH: 100
[12]; 125 g ai/ha
  phytotoxicity rating DIGSA: 100
[12]; 500 g ai/ha
  phytotoxicity rating DIGSA: 100
[13]; 125 g ai/ha
  phytotoxicity rating SETVI: 95
[13]; 500 g ai/ha
  phytotoxicity rating SETVI: 100
[14]; 125 g ai/ha
  phytotoxicity rating CHEAL: 100
[14]; 500 g ai/ha
  phytotoxicity rating CHEAL: 100
[15]; 125 g ai/ha
  phytotoxicity rating ECHCG: 80
[15]; 500 g ai/ha
  phytotoxicity rating ECHCG: 100
[16]; 63 g al/ha
  CASOB phytotoxicity rating (0-100): 30
[16]; 500 g al/ha
  CASOB phytotoxicity rating (0-100): 70
[17]; 63 g al/ha
  AMARE phytotoxicity rating (0-100): 100
[17]; 500 g al/ha
  AMARE phytotoxicity rating (0-100): 100
[18]; 63 g al/ha
  IPOHE phytotoxicity rating (0-100): 100
[18]; 500 g al/ha
  IPOHE phytotoxicity rating (0-100): 100
[19]; 63 g al/ha
  SORHA phytotoxicity rating (0-100): 80
[19]; 500 g al/ha
  SORHA phytotoxicity rating (0-100): 95
[20]; 63 g al/ha
  ABUTH phytotoxicity rating (0-100): 95
[20]; 500 g al/ha
  ABUTH phytotoxicity rating (0-100): 100
[21]; 63 g al/ha
  DIGSA phytotoxicity rating (0-100): 0
[21]; 500 g al/ha
  DIGSA phytotoxicity rating (0-100): 80
[22]; 63 g al/ha
  SETVI phytotoxicity rating (0-100): 100
[22]; 500 g al/ha
  SETVI phytotoxicity rating (0-100): 100
[23]; 63 g al/ha
  CHEAL phytotoxicity rating (0-100): 90
[23]; 500 g al/ha
  CHEAL phytotoxicity rating (0-100): 100
[24]; 63 g al/ha
  ECHCG phytotoxicity rating (0-100): 30
[24]; 500 g al/ha
  ECHCG phytotoxicity rating (0-100): 95
[25]; 125 g ai/ha
  crop damage rating RICE: 30
[25]; 500 g ai/ha
  crop damage rating RICE: 55
[26]; 125 g ai/ha
  crop damage rating CORN: 25
[26]; 500 g ai/ha
  crop damage rating CORN: 35
